The structures appear in SMILES notation.

Assay [1] has as its target T1, Cholinesterase (Equus caballus, UniProt P81908). Briefly: Inhibition of equine BuChE measured for 1 min by Ellman's method.
In assay [2] the target is Amyloid-beta precursor protein (Homo sapiens) (UniProt P05067). Put plainly: Inhibition of amyloid beta (1 to 42) (unknown origin) aggregation at 100 uM by thioflavin-T fluorescence method relative to rifampicin.
The target is the same in assay [3]. Put plainly: Inhibition of amyloid beta (1 to 40) (unknown origin) aggregation at 100 uM by thioflavin-T fluorescence method relative to rifampicin.
For the next assay, the target named is Acetylcholinesterase (Homo sapiens, UniProt P22303). Put plainly: Inhibition of human recombinant AChE measured for 1 min by Ellman's method. In general terms: Ellman's reagent forms a yellow product with free thiols.
Chain of Acetylcholinesterase (P22303 whole entry): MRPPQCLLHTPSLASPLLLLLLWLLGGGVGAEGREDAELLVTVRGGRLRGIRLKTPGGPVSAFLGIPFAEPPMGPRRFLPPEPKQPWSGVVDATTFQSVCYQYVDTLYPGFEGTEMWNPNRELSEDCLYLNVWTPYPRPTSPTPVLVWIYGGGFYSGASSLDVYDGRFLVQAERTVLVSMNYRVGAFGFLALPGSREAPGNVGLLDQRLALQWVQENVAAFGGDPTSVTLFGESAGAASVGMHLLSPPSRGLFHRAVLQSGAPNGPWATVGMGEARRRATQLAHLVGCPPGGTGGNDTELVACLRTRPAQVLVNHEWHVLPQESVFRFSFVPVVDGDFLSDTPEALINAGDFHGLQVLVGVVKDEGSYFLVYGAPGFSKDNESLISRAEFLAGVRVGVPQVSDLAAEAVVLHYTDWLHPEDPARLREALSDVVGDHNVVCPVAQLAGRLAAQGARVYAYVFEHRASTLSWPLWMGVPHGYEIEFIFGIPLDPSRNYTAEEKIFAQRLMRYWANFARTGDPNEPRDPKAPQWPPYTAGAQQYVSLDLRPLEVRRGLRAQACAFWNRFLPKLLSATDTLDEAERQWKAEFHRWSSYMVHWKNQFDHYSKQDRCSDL
Assay [4] deals with Amyloid-beta precursor protein (Homo sapiens) (UniProt P05067). Briefly: Inhibition of amyloid beta (1 to 40_1 to 42) (unknown origin) aggregation at 100 uM by thioflavin-T fluorescence method relative to rifampicin.
Assay [5] concerns the target T1, Cholinesterase. Put plainly: Competitive inhibition of equine BuChE by Lineweaver-Burk plot analysis.
Assay [6] concerns the target T1, Cholinesterase. Put plainly: Mixed type inhibition of equine BuChE by Lineweaver-Burk plot analysis.

Chain of Amyloid-beta precursor protein (Homo sapiens) (P05067 whole entry): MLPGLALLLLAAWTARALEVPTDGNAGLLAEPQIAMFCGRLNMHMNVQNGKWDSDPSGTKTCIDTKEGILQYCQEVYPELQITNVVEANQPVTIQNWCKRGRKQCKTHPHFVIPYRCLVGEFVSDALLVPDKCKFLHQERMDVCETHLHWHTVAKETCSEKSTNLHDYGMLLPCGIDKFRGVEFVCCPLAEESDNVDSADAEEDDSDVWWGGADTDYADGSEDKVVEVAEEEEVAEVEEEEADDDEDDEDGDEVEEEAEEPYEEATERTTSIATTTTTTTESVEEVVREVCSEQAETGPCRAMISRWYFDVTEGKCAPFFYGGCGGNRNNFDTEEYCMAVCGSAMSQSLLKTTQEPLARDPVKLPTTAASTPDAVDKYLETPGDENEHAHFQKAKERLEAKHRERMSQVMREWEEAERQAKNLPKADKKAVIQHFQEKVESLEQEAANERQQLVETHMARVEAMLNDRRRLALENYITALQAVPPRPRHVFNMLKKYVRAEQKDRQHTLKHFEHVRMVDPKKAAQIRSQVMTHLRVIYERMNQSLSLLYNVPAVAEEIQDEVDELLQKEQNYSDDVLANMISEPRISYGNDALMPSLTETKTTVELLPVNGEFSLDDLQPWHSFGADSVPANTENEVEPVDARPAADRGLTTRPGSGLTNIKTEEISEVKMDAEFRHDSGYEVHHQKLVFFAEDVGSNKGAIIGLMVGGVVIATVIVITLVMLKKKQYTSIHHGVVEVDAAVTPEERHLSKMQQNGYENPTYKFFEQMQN
T1 sequence (P81908 whole entry): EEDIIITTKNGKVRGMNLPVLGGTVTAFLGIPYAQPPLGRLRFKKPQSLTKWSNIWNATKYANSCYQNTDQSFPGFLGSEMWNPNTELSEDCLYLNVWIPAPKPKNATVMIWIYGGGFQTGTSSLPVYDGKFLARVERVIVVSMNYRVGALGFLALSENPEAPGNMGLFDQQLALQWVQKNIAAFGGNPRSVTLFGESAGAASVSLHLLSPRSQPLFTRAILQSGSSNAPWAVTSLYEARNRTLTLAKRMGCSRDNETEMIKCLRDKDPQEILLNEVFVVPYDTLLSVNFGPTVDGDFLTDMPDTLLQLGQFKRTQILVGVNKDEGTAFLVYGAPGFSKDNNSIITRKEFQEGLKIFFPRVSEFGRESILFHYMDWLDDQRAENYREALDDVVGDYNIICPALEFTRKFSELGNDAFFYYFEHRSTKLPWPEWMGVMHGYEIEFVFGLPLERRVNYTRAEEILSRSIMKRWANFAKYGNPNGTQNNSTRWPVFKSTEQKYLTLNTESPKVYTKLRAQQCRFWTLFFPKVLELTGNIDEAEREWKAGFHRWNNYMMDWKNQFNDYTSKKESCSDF

Consider `CCOc1ccc(/C=N/NC(=O)CN2CCN(Cc3ccccc3)CC2)cc1`, for which the values for the IC50 on Cholinesterase [1] and on Acetylcholinesterase were 98.8 µM and 81.4 µM, respectively. For the same compound, the inhibition in assay [2], in assay [3] and in assay [4] was 69% each time.

For the compound `COc1ccc(/C=N/NC(=O)CN2CCN(Cc3ccccc3)CC2)cc1`, the IC50 (in general, the point on the concentration scale where inhibition reaches its midpoint) is 88.3 µM at Cholinesterase [1] and 88.5 µM at Acetylcholinesterase. Also, the inhibition in assay [2], in assay [3] and in assay [4] was 69% in each case.

For `COc1ccc(/C=N/NC(=O)CN2CCN(Cc3ccccc3)CC2)cc1OC`, the half-maximal inhibitory concentration (IC50) at Cholinesterase [1] amounted to 71.7 µM; on Acetylcholinesterase it was 81.1 µM. In addition, the inhibition in assay [2], in assay [3] and in assay [4] was 69% in each case.

For `COc1ccc(/C=N/NC(=O)CN2CCC(Cc3ccccc3)CC2)cc1OC`, the half-maximal inhibitory concentration (IC50) at Cholinesterase [1] came to 55.1 µM; on Acetylcholinesterase it was 62.8 µM. The inhibition in assay [2], in assay [3] and in assay [4] was 69% each time.

On Cholinesterase [1], `CCOc1ccc(/C=N/NC(=O)CN2CCC(Cc3ccccc3)CC2)cc1` returned a half-maximal inhibitory concentration (IC50) of 67.3 µM. Also, the inhibition in assay [2], in assay [3] and in assay [4] was 69% throughout. Moreover, the inhibitory constant (Ki) – broadly, a dissociation constant, usually derived from enzyme kinetics or from competition with a known ligand – at Cholinesterase [5] came out at 31.5 µM.

`COc1ccc(/C=N/NC(=O)CN2CCC(Cc3ccccc3)CC2)cc1` displayed an IC50 at Cholinesterase [1] of 48.8 µM. Besides, the inhibition in assay [2], in assay [3] and in assay [4] was 69% each time. On Cholinesterase [6], this compound returned an inhibitory constant (Ki) of 30.5 µM.
